Test results published in paper PMC7341485 (Chemical research in toxicology, 2019).
“Also recorded” adds a separate entry of the source. Structures can show the parent of a compound that is named as a salt. Where two headings read alike, the source gives them in different places.

Tests used:
[1] = tested on: TGFβ/SMAD signaling (SMAD2/3/4 complex), SBE-bla HEK 293T cells; test: SBE-bla antagonist assay; type: cell-based, human; settings: for SBE Antagonist Efficacy: activity %, TGFβ1 only = 0, DMSO = -100
[2] = tested on: SHH pathway, Gli1-luc NIH/3T3 cells; test: SHH-luc reporter gene assay; type: cell-based
[3] = tested on: RAR pathway, RARE-luc C3RL4 cells; test: RAR-luc reporter gene assay; type: cell-based; settings: 6 h
[4] = tested on: WNT pathway, TCF/LEF-luc HEK293 cells; test: WNT-luc reporter gene assay; type: cell-based, human
[5] = tested on: iPSC-derived cortical glutamatergic neurons; test: Neurite outgrowth assay in iPSC-derived neurons; type: cell-based, human; settings: for IC50: Homo sapiens, Neuron, 24 h, read-out: IC50 of neurite outgrowth inhibition
[6] = tested on: SMAD2/3/4 signaling, SBE-bla HEK 293T cells; test: SBE-bla assay, activation by native TGFR ligands; type: cell-based, human; settings: Figure 2A
[7] = tested on: TGFβ, WNT, RAR and SHH pathways; test: Profile across developmental pathways; type: cell-based; settings: sodium dimethyldithiocarbamate at 10 μM
[8] = Homo sapiens, HEK-293T, read-out: IC50 in SBE-bla assay, primary screening

CN(C)C(=S)[S-].CN(C)C(=S)[S-].[Cu+2] [copper dimethyl dithiocarbamates]
IC50 ([1]; read-out: IC50 in SBE-bla assay, DTC cluster k35.18, Figure 3B): 1620 nM

dibutyltin
fold less cytotoxic in SBE-bla HEK 293T cells than in NSCs (SBE-bla HEK 293T cells): 10 fold

CCN(CC)C(=S)S [Sodium diethyldithiocarbamate]
IC50 ([1]; Homo sapiens, HEK-293T, 5 h, read-out: SBE Antagonist IC50): 11500 nM
SBE Antagonist Efficacy [1]: −58.53%
IC50 ([2]; Mus musculus, NIH3T3, 24 h, read-out: SHH Antagonist IC50): 8920 nM
SHH Antagonist Efficacy ([2]; conditioned medium, 24 h): −96.63%
IC50 ([3]; read-out: RAR Antagonist IC50): 15300 nM
RAR Antagonist Efficacy ([3]; retinol stimulated): −113.16%
IC50 ([4]; Homo sapiens, HEK293, 24 h, read-out: WNT Antagonist IC50): 3690 nM
WNT Antagonist Efficacy ([4]; WNT-3a stimulated, 24 h): −74.76%

Nc1ncn([C@@H]2O[C@H](CO)[C@@H](O)[C@H]2O)c(=O)n1 [5-Azacitidine]
inhibition of neurite outgrowth, in words ([5]; 24 h treatment, Figure 5D): inhibited neurite outgrowth

CN1C(=O)N(c2ccccc2Br)Cc2cnc(Nc3ccc4c(c3)OCC(CO)O4)nc21 (stereo not drawn) [PharmaGSID_48519]
inhibition of neurite outgrowth, in words [5]: did not inhibit neurite outgrowth; also recorded: didn’t inhibit neurite outgrowth

S=C(SSC(=S)N1CCCCC1)N1CCCCC1 [dicyclopentamethylenethiuram, dicyclopentamethylenethiuram disulfide]
IC50 ([1]; Homo sapiens, HEK-293T, read-out: IC50 in SBE-bla assay, DTC cluster k35.18): 580 nM
IC50 [5]: 820 nM

TGFβ1: native TGFR ligand, human TGFβ1
EC50 of activation of SBE-bla activity [6]: 0.11 ng/mL

C=CC(=O)Nc1cc2c(Nc3ccc(F)c(Cl)c3)ncnc2cc1OCCCN1CCOCC1 [canertinib]
inhibition of neurite outgrowth, in words ([5]; 24 h treatment, Figure 5D): inhibited neurite outgrowth

CC[C@]1(O)C[C@@H]2CN(CCc3c([nH]c4ccccc34)[C@@](C(=O)OC)(c3cc4c(cc3OC)N(C)[C@H]3[C@@](O)(C(=O)OC)[C@H](OC(C)=O)[C@]5(CC)C=CCN6CC[C@]43[C@@H]65)C2)C1 [vinblastine sulfate]
inhibition of neurite outgrowth, in words ([5]; 24 h treatment, Figure 5D): inhibited neurite outgrowth

phenylmercuric acetate
fold less cytotoxic in SBE-bla HEK 293T cells than in NSCs (SBE-bla HEK 293T cells): 10 fold

CC(=O)[C@]1(O)Cc2c(O)c3c(c(O)c2[C@@H](O[C@H]2C[C@H](N)[C@H](O)[C@H](C)O2)C1)C(=O)c1ccccc1C3=O [idarubicin hydrochloride]
inhibition of neurite outgrowth, in words ([5]; 24 h treatment, Figure 5D): inhibited neurite outgrowth

COc1cccc2c1C(=O)c1c(O)c3c(c(O)c1C2=O)C[C@@](O)(C(=O)CO)C[C@@H]3O[C@H]1C[C@H](N2CCO[C@H](OC)C2)[C@H](O)[C@H](C)O1 [nemorubicin]
inhibition of neurite outgrowth, in words [5]: inhibited neurite outgrowth

CN(C)C(=S)SSC(=S)N(C)C [Thiram]
IC50 [5]: 100 nM

CCN(CC)C(=S)SSC(=S)N(CC)CC [disulfiram]
IC50 [5]: 180 nM

TGFβ3: native TGFR ligand
EC50 of activation of SBE-bla activity [6]: 0.11 ng/mL

TGFβ2: native TGFR ligand
EC50 of activation of SBE-bla activity [6]: 0.11 ng/mL

[F][Sn]([c]1ccccc1)([c]1ccccc1)[c]1ccccc1 [triphenyltin fluoride]
fold less cytotoxic in SBE-bla HEK 293T cells than in NSCs (SBE-bla HEK 293T cells): 10 fold

CN1CC[C@H](c2c(O)cc(O)c3c(=O)cc(-c4ccccc4Cl)oc23)[C@H](O)C1 [flavopiridol hydrochloride, reference compound]
IC50 [1, 8]: 20 nM
inhibition of neurite outgrowth, in words ([5]; 24 h treatment, Figure 5D): inhibited neurite outgrowth

Cc1nc(Nc2ncc(C(=O)Nc3c(C)cccc3Cl)s2)cc(N2CCN(CCO)CC2)n1 [dasatinib]
IC50 [1, 8]: 260 nM
inhibition of neurite outgrowth, in words ([5]; 24 h treatment, Figure 5D): did not inhibit neurite outgrowth; also recorded: didn’t inhibit neurite outgrowth

CCCCN(CCCC)C(=S)[S-].[Na+] [Sodium dibutylcarbamodithioate]
SBE Antagonist IC50 ([1]; TGFβ1-induced SBE-bla activity, HEK 293T, 5 h, Tables 2 and 3): Inactive
SBE Antagonist Efficacy [1]: Inactive
SHH Antagonist Efficacy ([2]; conditioned medium, 24 h): Inactive
SHH Antagonist IC50 ([2]; conditioned medium, 24 h): Inactive
RAR Antagonist Efficacy ([3]; retinol stimulated): Inactive
RAR Antagonist IC50 ([3]; retinol stimulated): Inactive
inhibition of developmental pathways, in words [7]: inactive
WNT Antagonist Efficacy ([4]; WNT-3a stimulated, 24 h): Inactive
WNT Antagonist IC50 ([4]; WNT-3a stimulated, 24 h): Inactive

CC(C)C[C@H](NC(=O)[C@H](Cc1ccccc1)NC(=O)c1cnccn1)B(O)O [bortezomib]
inhibition of neurite outgrowth, in words ([5]; 24 h treatment, Figure 5D): inhibited neurite outgrowth
